# Where a name gives a salt, the structure may show the parent alone.
# System: Lysozyme (dimer formation with fructose)
# Assay: Inhibitory activity on Maillard reaction: formation of lysozyme dimer (lysozyme + fructose, SDS-PAGE, densitometer)
# Type: biochemical
# Details: lysozyme 10 mg/ml, fructose 100 mM, 0.2M sodium phosphate buffer pH 7.4, 37° C., 3 days
# Experimental: The inhibitory activity on Maillard reaction of the compounds of the present invention has confirmed by the screening system mentioned below. Lysozyme (10 mg/ml) and fructose (100 mM) were dissolved in 0.2M sodium phosphatic buffer solution (PH 7.4). The solution was incubated at a temperature of 37° C. for 3 days. A given volume of the reaction solution was separated using SDS-PAGE by the electrophoresis. After the electrophoresis, the SDS-PAGE was dyed by 0.2% Coomassie Brilliant Blue R-250 and then the dimer was determined by densitometer. The compounds of the present invention were added before incubation and the inhibitory activity of them against the formation of the dimer was examined in various concentrations and IC50 values were calculated.
row,SMILES,IC50 [µM]
1,"Cc1c(C)c2c(c(C)c1O)CCC(C)(CCOc1ccc(NC(=N)N)cc1C(F)(F)F)O2 (stereo not drawn) [5 (b), 2-trifluoromethyl-4-guanidinophenyl 2-(6-hydroxy-2,5,7,8-tetra-methyl-3,4-dihydro-2H-benzo[1,2-b]pyran-2-yl)ethyl ether hydrochloride]",74
2,"Cc1cc(OCCC2(C)CCc3c(C)c(O)c(C)c(C)c3O2)ccc1NC(=N)N (stereo not drawn) [5 (c), 3-methyl-4-guanidino-phenyl 2-(6-hydroxy-2,5,7,8-tetramethyl-3,4-dihydro-2H-benzo[1,2-b]pyran-2-yl)ethyl ether hydrochloride]",500
3,"Cc1c2c(c3ccccc3c1O)OC(C)(CCOc1ccc(NC(=N)N)cc1)CC2 (stereo not drawn) [5 (f), 4-guanidinophenyl 2-(2,5-dimethyl-6-hydroxy-3,4-dihydro-2H-naphtho[1,2-b]-pyran-2-yl)ethyl ether hydrochloride]",22
4,COc1cc(NC(=O)/C=C/c2ccc(NC(=N)N)cc2)ccc1OCCC1(C)CCc2c(C)c(O)c(C)c(C)c2O1 (stereo not drawn) [7 (e)],30
5,"Cc1cc(OCCC2(C)CCc3c(C)c(O)c(C)c(C)c3O2)ccc1NC(=O)/C=C/c1ccc(NC(=N)N)cc1 (stereo not drawn) [7 (f), N-[2-methyl-4-[2-(6-hydroxy-2,5,7,8-tetramethyl-3,4-dihydro-2H-benzo[1,2-b]pyran-2-yl)ethoxy]phenyl]-4-guanidinocinnamamidehydrochloride]",18
6,"Cc1c(C)c2c(c(C)c1O)CCC(C)(CCOc1ccc(NC(=O)c3ccc(NC(=N)N)cc3)cc1C(F)(F)F)O2 (stereo not drawn) [7 (k), N-[4-[2-(6-hydroxy-2,5,7,8-tetramethyl-3,4-dihydro-2H-benzo[1,2-b]pyran-2-yl)-ethoxy]-3-trifluoromethyl-phenyl]-4-guanidinobenzamidehydrochloride]",12
7,"Cc1c(C)c2c(c(C)c1O)CCC(C)(CCOc1ccc(NC(=O)COc3ccc(NC(=N)N)cc3)cc1)O2 (stereo not drawn) [7 (l), N-[4-[2-(6-hydroxy-2,5,7,8-tetramethyl-3,4-dihydro-2H-benzo[1,2-b]pyran-2-yl)-ethoxy]phenyl]-4-guanidinophenoxyacetamidehydrochloride]",54
8,"Cc1c(C)c2c(c(C)c1O)CCC(C)(CCOc1ccc(NC(=O)c3cccc(NC(=N)N)c3)cc1C(F)(F)F)O2 (stereo not drawn) [7 (m), N-[4-[2-(6-hydroxy-2,5,7,8-tetramethyl-3,4-dihydro-2H-benzo[1,2-b]pyran-2-yl)-ethoxy]-3-trifluoromethyl-phenyl]-3-guanidinobenzamidehydrochloride]",12
9,"Cc1c2c(c3ccccc3c1O)OC(C)(CCOc1ccc(NC(=O)/C=C/c3ccc(NC(=N)N)cc3)cc1)CC2 (stereo not drawn) [7 (n), N-[4-[2-(2,5-dimethyl-6-hydroxy-3,4-dihydro-2H-naphtho[1,2-b]pyran-2-yl)-ethoxy]phenyl]-4-guanidino-cinnamamide hydrochloride]",10
10,"Cc1c(C)c2c(c(C)c1O)CCC(C)(CCSc1ccc(NC(=O)CSc3ccc(NC(=N)N)cc3)cc1)O2 (stereo not drawn) [7 (t), N-[4-[2-(6-hydroxy-2,5,7,8-tetramethyl-3,4-dihydro-2H-benzo[1,2-b]pyran-2-yl)-ethylthio]phenyl]-4-guanidinophenylthioacetamidehydrochloride]",17
11,"Cc1c(C)c2c(c(C)c1O)CCC(C)(CCCCOc1ccc(NC(=O)c3ccc(NC(=N)N)cc3)cc1)O2 (stereo not drawn) [9 (a), N-[4-[4-(6-hydroxy-2,5,7,8-tetramethyl-3,4-dihydro-2H-benzo[1,2-b]pyran-2-yl)-butoxy]phenyl]-4-guanidinobenzamidehydrochloride]",10
12,"Cc1c2c(c3ccccc3c1O)OC(C)(CCCCSc1ccc(NC(=O)c3ccc(NC(=N)N)cc3)cc1)CC2 (stereo not drawn) [9 (j), N-[4-[4-(2,5-dimethyl-6-hydroxy-3,4-dihydro-2H-naphtho[1,2-b]pyran-2-yl)-butylthio]phenyl]-4-guanidinobenzamidehydrochloride]",4.8
13,"Cc1c(C)c2c(c(C)c1O)CCC(C)(CCCCOc1ccc(NC(=O)/C=C/c3ccc(NC(=N)N)cc3)cc1C(F)(F)F)O2 (stereo not drawn) [9 (l), N-[4-[4-(6-hydroxy-2,5,7,8-tetramethyl-3,4-dihydro-2H-benzo[1,2-b]pyran-2-yl)-butoxy]-3-trifluoromethyl-phenyl]-4-guanidino-cinnamamide hydrochloride]",6.6
14,"CCOC(=O)c1cc(NC(=N)N)cc(C(=O)Nc2ccc(OCCCCC3(C)CCc4c(C)c(O)c(C)c(C)c4O3)cc2)c1 (stereo not drawn) [9 (m), N-[4-[4-(6-hydroxy-2,5,7,8-tetramethyl-3,4-dihydro-2H-benzo[1,2-b]pyran-2-yl)-butoxy]phenyl]-3-guanidino-5-ethoxycarbonylbenzamidehydrochloride]",9
15,"Cc1c(C)c2c(c(C)c1O)CCC(C)(CCCCNC(=O)COc1ccc(NC(=N)N)cc1)O2 (stereo not drawn) [22 (a), N-[4-(6-hydroxy-2,5,7,8-tetramethyl-3,4-dihydro-2H-benzo[1,2,-b]pyran-2-yl)butyl]-2-(4-guanidinophenoxy)acetamide hydrochloride]",500
16,"Cc1c(C)c2c(c(C)c1O)CCC(C)(CCCCOc1ccc(CCSc3ccc(NC(=N)N)cc3)cc1)O2 (stereo not drawn) [28 (c), 4-guanidinophenyl 2-[4-[4-(6-hydroxy-2,5,7,8-tetramethyl-3,4-dihydro-2H-benzo[1,2-b]-pyran-2-yl)butoxy]phenyl]-ethyl thioether hydrochloride]",4.2

# The next lines start with the values.
row,IC50 [µM],SMILES
1,340,"COc1c(O)c(C)c2c(c1OC)OC(C)(CCOC(=O)c1ccc(NC(=N)N)cc1)CC2 (stereo not drawn) [1 (d), 2-(2,5-dimethyl-6-hydroxy-7,8-dimethoxy-3,4-di-hydro-2H-benzo[1,2-b]pyran-2-yl)-ethyl4-quanidinobenzoate hydrochloride]"
2,100,"Cc1c(C)c2c(c(C)c1O)CCC(C)(CCOC(=O)c1cccc(NC(=N)N)c1)O2 (stereo not drawn) [1 (i), 2-(6-hydroxy-2,5,7,8-tetramethyl-3,4-dihydro-2H-benzo[1,2-b]pyran-2-yl)ethyl3-quanidinobenzoate hydrochloride]"
3,190,"Cc1c(C)c2c(c(C)c1O)CCC(C)(CCNC(=O)/C=C/c1ccc(NC(=N)N)cc1)O2 (stereo not drawn) [2 (e), N-[2-(6-hydroxy-2,5,7,8-tetramethyl-3,4-dihydro-2H-benzo[1,2-b]pyran-2-yl)-ethyl]4-quanidinocinnam-amide hydrochloride]"
4,150,"Cc1c2c(c3ccccc3c1O)OC(C)(CCNC(=O)c1cccc(NC(=N)N)c1)CC2 (stereo not drawn) [2 (f), hydrochloride]"
5,200,"Cc1c(C)c2c(c(C)c1O)CCC(C)(CCOc1ccc(NC(=O)c3cccc(NC(=N)N)c3)cc1)O2 (stereo not drawn) [7 (a), N-[4-[2-(6-hydroxy-2,5,7,8-tetramethyl-3,4-dihydro-2H-benzo[1,2-b]pyran-2-yl)-ethoxy]phenyl]-3-guanidino-benzamide hydrochloride]"
6,4.8,"Cc1c(C)c2c(c(C)c1O)CCC(C)(CCOc1ccc(NC(=O)/C=C/c3ccc(NC(=N)N)cc3)cc1C(F)(F)F)O2 (stereo not drawn) [7 (c), N-[3-trifluoromethyl-4-[2-(6-hydroxy-2,5,7,8-tetramethyl-3,4-dihydro-2H-benzo[1,2-b]pyran-2-yl)-ethoxy]phenyl]-4-guanidino-cinnamamide hydrochloride]"
7,48,"CC(=O)Nc1cc(NC(=O)/C=C/c2ccc(NC(=N)N)cc2)ccc1OCCC1(C)CCc2c(C)c(O)c(C)c(C)c2O1 (stereo not drawn) [7 (d), N-[3-acetoamide-4-[2-(6-hydroxy-2,5,7,8-tetramethyl-3,4-dihydro-2H-benzo[1,2-b]-pyran-2-yl)ethoxy]phenyl]-4-guanidinocinnamamidehydrochloride]"
8,19,"Cc1c(C)c2c(c(C)c1O)CCC(C)(CCSc1ccc(NC(=O)c3ccc(NC(=N)N)cc3)cc1)O2 (stereo not drawn) [7 (h), N-[4-[2-(6-hydroxy-2,5,7,8-tetramethyl-3,4-dihydro-2H-benzo[1,2-b]pyran-2-yl)-ethylthio]phenyl]-4-guanidinobenzamidehydrochloride]"
9,5.4,"Cc1c(C)c2c(c(C)c1O)CCC(C)(CCCCSc1ccc(NC(=O)/C=C/c3ccc(NC(=N)N)cc3)cc1)O2 (stereo not drawn) [9 (d), N-[4-[4-(6-hydroxy-2,5,7,8-tetramethyl-3,4-dihydro-2H-benzo[1,2-b]pyran-2-yl)-butylthio]phenyl]-4-guanidinocinnamamidehydrochloride]"
10,21,"Cc1c(C)c2c(c(C)c1O)CCC(C)(CCCCOc1ccc(NC(=N)N)cc1C(F)(F)F)O2 (stereo not drawn) [10 (a), 2-trifluoromethyl-4-guanidinophenyl 4-(6-hydroxy-2,5,7,8-tetramethyl-3,4-dihydro-2H-benzo[1,2-b]-pyran-2-yl)butyl ether hydrochloride]"
11,36,"Cc1c(C)c2c(c(C)c1O)CCC(C)(CCCCSc1ccc(NC(=N)N)cc1)O2 (stereo not drawn) [10 (e), 4-guanidinophenyl 4-(6-hydroxy-2,5,7,8-tetramethyl-3,4-dihydro-2H-benzo[1,2-b]pyran-2-yl)butyl thioether hydrochloride]"
12,68,"Cc1c(C)c2c(c(C)c1O)CCC(C)(CCN(Cc1ccccc1)C(=O)/C=C/c1ccc(NC(=N)N)cc1)O2 (stereo not drawn) [24 (a), N-benzyl-N-[2-(6-hydroxy-2,5,7,8-tetramethyl-3,4-dihydro-2H-benzo[1,2-b]pyran-2-yl)ethyl]-4-guanidinocinnamamide hydrochloride]"
13,190,"Cc1c(C)c2c(c(C)c1O)CCC(C)(CCSCCOc1ccc(NC(=N)N)cc1)O2 (stereo not drawn) [27 (b), 4-guanidinophenyl 2-[2-(6-hydroxy-2,5,7,8-tetramethyl-3,4-dihydro-2H-benzo[1,2-b]-pyran-2-yl)ethylthio]ethyl ether hydrochloride]"
14,5.6,"Cc1c(C)c2c(c(C)c1O)CCC(C)(CCOc1ccc(CCCOc3ccc(NC(=N)N)cc3)cc1)O2 (stereo not drawn) [27 (f), 4-guanidinophenyl 3-[4-[2-(6-hydroxy-2,5,7,8-tetramethyl-3,4-dihydro-2H-benzo[1,2-b]-pyran-2-yl)ethoxy]phenyl]-propyl ether hydrochloride]"

# Reference: patent US5508450A, “Benzopyran derivatives” (Ono Pharmaceutical Co., Ltd., priority 1989, dated 1996)
